In patent publication US9328130B2, “Method of treating organism by biologically active compounds specifically delivered into mitochondria, pharmaceutical composition required for the use of the method and a compound applicable for this purpose” (MITOTECH S.A., priority 2005, dated 2016):

Legend:
[1] = system: respiratory chain of rat liver mitochondria; format: biochemical
Protocol: FIG. 5 describes the oxidation of quinols of “MitoQ” and “SkQ1” by respiratory chain of rat liver mitochondria energized with succinate (5 mM) in the presence of 2 μM rotenone. After complete reduction of […] the respiratory chain was blocked with 25 mM malonate and reoxidation rate of “MitoQ” and “SkQ1” was measured. In order to examine whether the test compounds (SkQ1 and MitoQ) can be reduced by the respiratory chain of mitochondria, changes of the ratio between oxidized and reduced forms of test compounds were measured in the presence of respiratory substrates in a medium used for isolation of rat liver mitochondria. The measurements were carried out in the presence of mitochondria (protein concentration 0.2 mg/ml).

[2] = system: human lung fibroblasts; test: Protection from apoptosis caused by H2O2; format: cell-based; details: preincubation with 20 nM for 6 days
Protocol: Normal diploid fibroblasts from human skin and lung, human uterus carcinoma cells (HeLa cells) and human lymphoma cells (U 937 strain) were used in this experiment. Cells were cultivated in standard media (DMEM or RPMI) in the presence of 10% fetal serum at 37° C. and 5% CO2. Experiments were carried out on the cultured cells grown to 30-50% confluency. H2O2 was added once and the cells were analyzed after 18-24 h of incubation. Apoptotic death was monitored by condensation of chromatin and nucleus fragmentation after staining the cells with Hoechst 33342 (1 μg/ml, 15 min). 300-500 cells were taken into account from each preparation and the final results are the average of 3-5 independent experiments. Necrosis was determined by staining of nuclei with propidium iodide (2 μg/ml, 5 min). […] It was confirmed that apoptosis in all cases was accompanied with decrease of mitochondrial membrane potential, release of cytochrome c from mitochondria into cytoplasm and activation of caspases.

[3] = system: Hela cells; test: Transmission of apoptotic signal between inducer and recipient slides; format: cell-based, human; details: for apoptosis at slide-recipient: TNF
Protocol: HeLa cells were used in these experiments. Cells grown on a glass slide were treated with different apoptosis-inducing agents (tumor necrosis factor (TNF), staurosporine, H2O2) for 3 h. Then the glass slide with cells (inducer) was washed to remove these reagents and placed into Petri plate to come into contact with glass slide (recipient) with cells grown in the absence of any apoptosis-inducing agent. After 16-18 h of subsequent growth and staining the cells with Hoechst 33342 as described above, apoptosis at both glass slides was analyzed.
Thus the main mediator of apoptosis signal was H2O2.

[4] = Light-dependent inactivation of gramicidin channel in model lipid membrane with phthalocyanine photosensitizer; format: biochemical; details: SkQ1 at 1 μM
[5] = system: Hela cells; test: Morphology of HeLa cells; format: cell-based, human
Protocol: Normal fibroblasts from the human skin and lung and HeLa cells were cultivated at low cell density (20-30% confluency). Morphometric measurements were carried out for cell area, dispersion and elongation. Cytoskeleton structures were analyzed by staining the fixed cell preparations with rhodamine falloidin (actin filaments), antibodies against tubulin (microtubules) and vinculin (surface contacts). Mobility of the cells was examined with the help of microvideo camera.

CC1=C(C)C(=O)C(CCCCCCCCCC[P+](c2ccccc2)(c2ccccc2)c2ccccc2)=CC1=O.[Br-] [SkQ1, 2,3-dimethyl-1,4-benzoquinon-5-decyl-triphenylphosphonium bromide]
concentration not suppressing mitochondrial respiration [1]: up to 10 μM
time compound retains intact under incubation conditions in biological media ([1]; whole experiment): at least tens of minutes
apoptosis among cell population ([2]; 100 μM H2O2): 7±3%
apoptosis among cell population ([2]; 200 μM H2O2): 12±5%
H2O2 concentration in the medium ([3]; 24 hours after contact, inductor cells preincubated): 40 ± 10 nM
apoptosis at slide-recipient ([3]; preincubation of inducer with 20 nM): 17±3%
apoptosis at slide-recipient ([3]; preincubation of recipient cells): 16±4%
protective effect on recipient cells ([3]; corrected for 12±3% apoptosis from emetine): ~100%
apoptosis at slide-inducer caused by TNF ([3]; inductor cells incubated with 20 nM for 6 days): 90±5%
H2O2 concentration in the medium ([3]; recipient cells preincubated): did not lead to decrease of H2O2 concentration
light-dependent inactivation of gramicidin [4]: completely prevents
amount of actin filaments [5]: increased
mean density of filaments [5]: not changed
mean area, times higher ([5]; same treatment as fibroblasts): 2.6 times
